System: HFD-fed mice
Test: Liver histopathology, HE staining
Assay type: in vivo, C57BL/6J mice
Conditions: metformin group (200 mg/kg), gavage 5 weeks, FIG. 5
Description: 1.4 Experimental method: After adaptive feeding for one week, 35 four-week-old male C57BL/6 mice were randomized into 2 initial groups, fed with a normal chow or a high-fat (60% fat) high-sugar (20% fructose) chow. […] During modeling, the mice were given ad libitum access to food and water at room temperature of 23-25° C. in an animal laboratory. The proper temperature and the 12-hour day-night cycle were maintained. From week 11, the mice in each group were dosed by gavage for 5 weeks, and its weight was measured once a week. 4.1.1 Experimental method: Fresh liver tissue was collected and fixed in 4% neutral formalin buffer for 24 h, and then dehydrated. The tissue blocks were trimmed, processed, and embedded in paraffin. The tissue in glass slides were cut to the thickness of 5 μm and treated with HE staining.

CN(C)C(=N)N=C(N)N [metformin]
hepatocyte swelling, steatosis, sparse cytoplasm (HE staining): significantly relieved

Source: patent US20230057861A1, “USE OF CORYDALIS SAXICOLA BUNTING AND FORMULATION THEREOF IN PREPARATION OF DRUG FOR TREATING NON-ALCOHOLIC FATTY LIVER DISEASES” (NANJING ZHONGSHAN PHARMACEUTICAL CO., LTD., priority 2020, published 2023)
